From ChEMBL document CHEMBL1137268, “2-Aminoquinoline melanin-concentrating hormone (MCH)1R antagonists” (Bioorg Med Chem Lett, 2006)

Columns and labels:
[1] = target: T1, Melanin-concentrating hormone receptor 1 (Homo sapiens, UniProt Q99705); test: Displacement of 125I-[Phe13,Tyr19]-MCH from human MCH-R1
[2] = target: T2, Melanin-concentrating hormone receptor 1 (Rattus norvegicus, UniProt P97639); test: […] of IP3-coupled mobilization of calcium in HEK293 cells expressing rat MCH-R1; type: functional, cell-based
T2 sequence (P97639 whole entry): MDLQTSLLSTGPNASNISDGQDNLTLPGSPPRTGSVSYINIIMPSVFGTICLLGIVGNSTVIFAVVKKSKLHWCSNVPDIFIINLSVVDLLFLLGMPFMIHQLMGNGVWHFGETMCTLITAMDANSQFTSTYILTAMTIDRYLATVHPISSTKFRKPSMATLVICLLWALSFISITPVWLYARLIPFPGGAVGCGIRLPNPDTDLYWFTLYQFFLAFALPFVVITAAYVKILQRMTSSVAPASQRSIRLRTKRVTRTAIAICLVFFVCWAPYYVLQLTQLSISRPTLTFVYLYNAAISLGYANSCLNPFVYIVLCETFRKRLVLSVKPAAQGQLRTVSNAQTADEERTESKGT

[3] = target: Melanin-concentrating hormone receptor 2 (Homo sapiens) (UniProt Q969V1); test: Inhibition of 125I-[Phe13,Tyr19]-MCHbinding to human MCH-R2; conditions: concentration not given here
Chain of Melanin-concentrating hormone receptor 2 (Homo sapiens) (Q969V1 whole entry): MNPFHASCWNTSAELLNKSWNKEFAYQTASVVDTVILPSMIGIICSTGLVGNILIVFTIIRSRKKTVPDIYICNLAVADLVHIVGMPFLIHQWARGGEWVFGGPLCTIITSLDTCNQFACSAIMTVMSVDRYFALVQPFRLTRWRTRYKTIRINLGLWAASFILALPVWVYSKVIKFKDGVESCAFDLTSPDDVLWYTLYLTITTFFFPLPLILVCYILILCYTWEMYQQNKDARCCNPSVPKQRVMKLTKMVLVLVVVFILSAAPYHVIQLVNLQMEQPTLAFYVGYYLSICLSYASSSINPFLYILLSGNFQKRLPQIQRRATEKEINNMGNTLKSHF

[4] = target: Melanin-concentrating hormone receptor 1 (Rattus norvegicus) (UniProt P97639); test: Inhibition of 125I-[Phe13,Tyr19]-MCH binding to rat MCH-R1 at 5uM
Chain of Melanin-concentrating hormone receptor 1 (Rattus norvegicus) (P97639 whole entry): as the sequence (P97639 whole entry) above

[5] = Rat Clp; type: ADME, organism-based; conditions: plasma, read-out: Clp
[6] = target: T1, Melanin-concentrating hormone receptor 1; test: Inhibition of 125I-[Phe13,Tyr19]-MCH binding to human MCH-R1 at 5uM
[7] = Half-life in rats; type: ADME, organism-based; conditions: rat, in vivo
[8] = Volume of distribution in rats; type: ADME, organism-based; conditions: rat, in vivo; read-out: Vdss
[9] = target: T2, Melanin-concentrating hormone receptor 1; test: Displacement of 125I-[Phe13,Tyr19]-MCH from rat MCH-R1
Rattus norvegicus = species on record: Rattus norvegicus; test: Decreased overnight food intake in continuously infused rats on high-fat diet; type: functional

T1 sequence (Q99705 whole entry): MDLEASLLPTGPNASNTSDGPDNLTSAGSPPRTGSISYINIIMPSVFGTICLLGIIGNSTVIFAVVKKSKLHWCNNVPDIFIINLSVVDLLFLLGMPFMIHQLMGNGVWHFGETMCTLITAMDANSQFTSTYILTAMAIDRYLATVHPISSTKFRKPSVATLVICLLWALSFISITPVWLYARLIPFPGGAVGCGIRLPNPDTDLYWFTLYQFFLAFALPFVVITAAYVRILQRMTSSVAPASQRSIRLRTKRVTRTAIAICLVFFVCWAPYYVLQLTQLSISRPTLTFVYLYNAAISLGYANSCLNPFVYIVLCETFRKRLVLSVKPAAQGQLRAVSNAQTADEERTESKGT

Row | IC50 [1] [µM] | EC50 [2] [µM] | inhibition [3] [%] | SMILES | also measured
1 | 0.088 | 0.83 | < 50 | CCN(CC)c1ccc2cc(NC(=O)CCc3ccc(C(F)(F)F)cc3)ccc2n1 | –
2 | 0.002 | 0.4 | – | CC1CCN(c2ccc3cc(NC(=O)CCc4ccc(C(F)(F)F)cc4)ccc3n2)C1 (stereo unspecified) | –
3 | 0.001 | 0.09 | – | CC(C)C(=O)NC1CCN(c2ccc3cc(NC(=O)CCc4ccc(C(F)(F)F)cc4)ccc3n2)C1 (stereo unspecified) | –
4 | 0.004 | 0.056 | < 50 | O=C(CCc1ccc(C(F)(F)F)cc1)Nc1ccc2nc(N3CCC3)ccc2c1 | –
5 | 0.21 | 0.49 | – | O=C(CCc1ccc(C(F)(F)F)cc1)Nc1ccc2nc(N3CC4CC3CN4)ccc2c1 (stereo unspecified) | –
6 | 0.005 | 0.27 | – | CC1CCCN1c1ccc2cc(NC(=O)CCc3ccc(C(F)(F)F)cc3)ccc2n1 (stereo unspecified) | –
7 | 3.7 | – | < 50 | CN(c1ccccc1)c1ccc2cc(NC(=O)CCc3ccc(C(F)(F)F)cc3)ccc2n1 | –
8 | 0.003 | 0.19 | < 50 | O=C(CCc1ccc(C(F)(F)F)cc1)Nc1ccc2nc(N3CC4CCC3CC4)ccc2c1 | –
9 | 0.0005 | 0.14 | – | O=C(CCc1ccc(C(F)(F)F)cc1)Nc1ccc2nc(N3CCC4(CCNC4)C3)ccc2c1 (stereo unspecified) | –
10 | 0.025 | 1.77 | – | O=C(CCc1ccc(C(F)(F)F)cc1)Nc1ccc2nc(N3CCC(c4ccccc4)C3)ccc2c1 (stereo unspecified) | –
11 | 0.036 | 1.8 | < 50 | O=C(CCc1ccc(C(F)(F)F)cc1)Nc1ccc2nc(N3CCCCCC3)ccc2c1 | –
12 | 0.49 | – | < 50 | CCCN(CCC)c1ccc2cc(NC(=O)CCc3ccc(C(F)(F)F)cc3)ccc2n1 | –
13 | 0.24 | 0.72 | < 50 | Nc1ccc2cc(NC(=O)CCc3ccc(C(F)(F)F)cc3)ccc2n1 | –
14 | 0.012 | 0.2 | – | NC1CCN(c2ccc3cc(NC(=O)CCc4ccc(C(F)(F)F)cc4)ccc3n2)C1 (stereo unspecified) | –
15 | 0.003 | 0.05 | – | CS(=O)(=O)NC1CCN(c2ccc3cc(NC(=O)CCc4ccc(C(F)(F)F)cc4)ccc3n2)C1 (stereo unspecified) | –
16 | 0.8 | 0.58 | – | COC(=O)C1CCCN1c1ccc2cc(NC(=O)CCc3ccc(C(F)(F)F)cc3)ccc2n1 (stereo unspecified) | –
17 | 0.002 | 0.14 | < 50 | CC(C)N(C)c1ccc2cc(NC(=O)CCc3ccc(C(F)(F)F)cc3)ccc2n1 | –
18 | 0.002 | 0.35 | < 50 | CN(c1ccc2cc(NC(=O)CCc3ccc(C(F)(F)F)cc3)ccc2n1)C1CCCC1 | –
19 | 0.02 | 0.33 | < 50 | CNc1ccc2cc(NC(=O)CCc3ccc(C(F)(F)F)cc3)ccc2n1 | –
20 | 0.013 | 0.07 | – | O=C(CCc1ccc(C(F)(F)F)cc1)Nc1ccc2nc(N3CC4CC3CO4)ccc2c1 (stereo unspecified) | –
21 | 0.006 | 0.03 | – | CNC(=O)NC1CCN(c2ccc3cc(NC(=O)CCc4ccc(C(F)(F)F)cc4)ccc3n2)C1 (stereo unspecified) | –
22 | 0.012 | 0.11 | < 50 | O=C(CCc1ccc(C(F)(F)F)cc1)Nc1ccc2nc(N3CCCCC3)ccc2c1 | –
23 | 0.003 | 0.32 | < 50 | O=C(CCc1ccc(C(F)(F)F)cc1)Nc1ccc2nc(N3CCCC3)ccc2c1 | EC50 ([2]; hek293): 0.32 µM
24 | 0.005 | 0.44 | – | CC(=O)NC1CCN(c2ccc3cc(NC(=O)CCc4ccc(C(F)(F)F)cc4)ccc3n2)C1 (stereo unspecified) | –
25 | 0.01 | 0.11 | – | O=C(CCc1ccc(C(F)(F)F)cc1)Nc1ccc2nc(N3CCC(NC(=O)c4ccccc4)C3)ccc2c1 (stereo unspecified) | –
26 | 0.012 | – | – | CCCc1cc(N(C)C)c2cc(NC(=O)CCc3ccc(C(F)(F)F)cc3)ccc2n1 | –
27 | 0.013 | 0.11 | < 50 | CN(C)c1ccc2cc(NC(=O)CCc3ccc(C(F)(F)F)cc3)ccc2n1 | –
28 | 0.001 | 0.15 | – | O=C(CCc1ccc(C(F)(F)F)cc1)Nc1ccc2nc(N3CC4CCC3C4)ccc2c1 (stereo unspecified) | –
29 | 0.018 | 1.2 | < 50 | CN(c1ccc2cc(NC(=O)CCc3ccc(C(F)(F)F)cc3)ccc2n1)C1CCCCC1 | –
30 | 0.01 | 0.14 | < 50 | CCCN(C)c1ccc2cc(NC(=O)CCc3ccc(C(F)(F)F)cc3)ccc2n1 | –

Row | SMILES | IC50 [1] [µM] | EC50 [2] [µM] | inhibition [3] [%] | also measured
31 | O=C(Nc1ccc2nc([N+]34CCC(CC3)CC4)ccc2c1)c1ccc(C(F)(F)F)nc1 | – | > 10 | – | inhibition [4]: 20%; clearance [5]: 3.42 L/h/kg; inhibition [6]: 30%; half-life [7]: 66 min; Vd [8]: 3.92 L/kg
32 | O=C(CCCCCCCCCCCCc1ccc(C(F)(F)F)cc1)Nc1ccc2nc([N+]34CCC(CC3)CC4)ccc2c1 | 0.005 | 0.025 | – | IC50 [9]: 0.013 µM; clearance [5]: 2.16 L/h/kg; half-life [7]: 36 min; Vd [8]: 1 L/kg; Reduced food intake (Rattus norvegicus): 26%
